These are literature values, as cited in patent US8821924B2, “Rhein or diacerein compositions” (Wockhardt Ltd., priority 2007, dated 2014).

The conditions of the series: water, alcohols, acetone, dichloromethane and chloroform.

Regarding `CC(=O)Oc1cccc2c1C(=O)c1c(OC(C)=O)cc(C(=O)O)cc1C2=O` [Diacerein, 4,5-bis(acetyloxy)9,10-dihydro-4,5-dihydroxy-9,10-dioxo-2-anthracenecarboxylic acid], the solubility in solvents entry is “practically insoluble”.
